Experimental data as given in ChEMBL document CHEMBL4507289, “Data for DCP probe GSM1” (2021).

Experiments:
[1] = system: Tyrosine-protein kinase ABL1 (Homo sapiens), P00519 [F317L]; details: Compound concentration 1000.0 nM
[2] = system: Tyrosine-protein kinase ABL1 (Homo sapiens), P00519 [Q252H]; details: Compound concentration 1000.0 nM
[3] = molecular target: Activin receptor type-2A (Homo sapiens) (UniProt P27037); details: Compound concentration 1000.0 nM
[4] = molecular target: ALK tyrosine kinase receptor (Homo sapiens) (UniProt Q9UM73); details: Compound concentration 1000.0 nM
[5] = molecular target: Aurora kinase B (Homo sapiens) (UniProt Q96GD4); details: Compound concentration 1000.0 nM
[6] = molecular target: Bone morphogenetic protein receptor type-1B (Homo sapiens) (UniProt O00238); details: Compound concentration 1000.0 nM
[7] = molecular target: Mitotic checkpoint serine/threonine-protein kinase BUB1 (Homo sapiens) (UniProt O43683); details: Compound concentration 1000.0 nM
[8] = molecular target: Calcium/calmodulin-dependent protein kinase type 1D (Homo sapiens) (UniProt Q8IU85); details: Compound concentration 1000.0 nM
[9] = molecular target: Calcium/calmodulin-dependent protein kinase type II subunit beta (Homo sapiens) (UniProt Q13554); details: Compound concentration 1000.0 nM
[10] = molecular target: Cyclin-dependent kinase-like 1 (Homo sapiens) (UniProt Q00532); details: Compound concentration 1000.0 nM
[11] = molecular target: Serine/threonine-protein kinase Chk2 (Homo sapiens) (UniProt O96017); details: Compound concentration 1000.0 nM
[12] = molecular target: Citron Rho-interacting kinase (Homo sapiens) (UniProt O14578); details: Compound concentration 1000.0 nM
[13] = molecular target: Dual specificity protein kinase CLK3 (Homo sapiens) (UniProt P49761); details: Compound concentration 1000.0 nM
[14] = molecular target: Dual specificity protein kinase CLK4 (Homo sapiens) (UniProt Q9HAZ1); details: Compound concentration 1000.0 nM
[15] = molecular target: Serine/threonine-protein kinase 17B (Homo sapiens) (UniProt O94768); details: Compound concentration 1000.0 nM
[16] = system: Epidermal growth factor receptor (Homo sapiens), P00533 [UNDEFINED MUTATION]; details: Compound concentration 1000.0 nM
[17] = molecular target: Ephrin type-A receptor 7 (Homo sapiens) (UniProt Q15375); details: Compound concentration 1000.0 nM
[18] = molecular target: Fibroblast growth factor receptor 2 (Homo sapiens) (UniProt P21802); details: Compound concentration 1000.0 nM
[19] = molecular target: Fibroblast growth factor receptor 4 (Homo sapiens) (UniProt P22455); details: Compound concentration 1000.0 nM
[20] = molecular target: G protein-coupled receptor kinase 3 (Homo sapiens) (UniProt P35626); details: Compound concentration 1000.0 nM
[21] = molecular target: Serine/threonine-protein kinase haspin (Homo sapiens) (UniProt Q8TF76); details: Compound concentration 1000.0 nM
[22] = molecular target: Insulin receptor (Homo sapiens) (UniProt P06213); details: Compound concentration 1000.0 nM
[23] = molecular target: Insulin receptor-related protein (Homo sapiens) (UniProt P14616); details: Compound concentration 1000.0 nM
[24] = system: Mast/stem cell growth factor receptor Kit (Homo sapiens), P10721 [D816V]; details: Compound concentration 1000.0 nM
[25] = molecular target: Mitogen-activated protein kinase kinase kinase kinase 4 (Homo sapiens) (UniProt O95819); details: Compound concentration 1000.0 nM
[26] = molecular target: Dual specificity mitogen-activated protein kinase kinase 2 (Homo sapiens) (UniProt P36507); details: Compound concentration 1000.0 nM
[27] = molecular target: Serine/threonine-protein kinase 26 (Homo sapiens) (UniProt Q9P289); details: Compound concentration 1000.0 nM
[28] = molecular target: Serine/threonine-protein kinase mTOR (Homo sapiens) (UniProt P42345); details: Compound concentration 1000.0 nM
[29] = molecular target: Serine/threonine-protein kinase 38 (Homo sapiens) (UniProt Q15208); details: Compound concentration 1000.0 nM
[30] = molecular target: Serine/threonine-protein kinase PAK 1 (Homo sapiens) (UniProt Q13153); details: Compound concentration 1000.0 nM
[31] = molecular target: Cyclin-dependent kinase 18 (Homo sapiens) (UniProt Q07002); details: Compound concentration 1000.0 nM
[32] = molecular target: Cyclin-dependent kinase 15 (Homo sapiens) (UniProt Q96Q40); details: Compound concentration 1000.0 nM
[33] = molecular target: Phosphatidylinositol 4,5-bisphosphate 3-kinase catalytic subunit beta isoform (Homo sapiens) (UniProt P42338); details: Compound concentration 1000.0 nM
[34] = molecular target: Phosphatidylinositol 5-phosphate 4-kinase type-2 beta (Homo sapiens) (UniProt P78356); details: Compound concentration 1000.0 nM
[35] = molecular target: cGMP-dependent protein kinase 2 (Homo sapiens) (UniProt Q13237); details: Compound concentration 1000.0 nM
[36] = molecular target: Interferon-induced, double-stranded RNA-activated protein kinase (Homo sapiens) (UniProt P19525); details: Compound concentration 1000.0 nM
[37] = molecular target: Serine/threonine-protein kinase SIK3 (Homo sapiens) (UniProt Q9Y2K2); details: Compound concentration 1000.0 nM
[38] = molecular target: Ribosomal protein S6 kinase alpha-4 (Homo sapiens) (UniProt O75676); details: Compound concentration 1000.0 nM
[39] = molecular target: Ribosomal protein S6 kinase alpha-5 (Homo sapiens) (UniProt O75582); details: Compound concentration 1000.0 nM
[40] = molecular target: Ribosomal protein S6 kinase alpha-2 (Homo sapiens) (UniProt Q15349); details: Compound concentration 1000.0 nM
[41] = molecular target: Serine/threonine-protein kinase SBK1 (Homo sapiens) (UniProt Q52WX2); details: Compound concentration 1000.0 nM
[42] = molecular target: Tyrosine-protein kinase receptor Tie-1 (Homo sapiens) (UniProt P35590); details: Compound concentration 1000.0 nM
[43] = molecular target: High affinity nerve growth factor receptor (Homo sapiens) (UniProt P04629); details: Compound concentration 1000.0 nM
[44] = molecular target: D(1B) dopamine receptor (Homo sapiens) (UniProt P21918); details: Compound concentration 10.0 uM
[45] = molecular target: Muscarinic acetylcholine receptor M3 (Homo sapiens) (UniProt P20309); details: Compound concentration 10.0 uM

Chain of Dual specificity mitogen-activated protein kinase kinase 2 (Homo sapiens) (P36507 whole entry): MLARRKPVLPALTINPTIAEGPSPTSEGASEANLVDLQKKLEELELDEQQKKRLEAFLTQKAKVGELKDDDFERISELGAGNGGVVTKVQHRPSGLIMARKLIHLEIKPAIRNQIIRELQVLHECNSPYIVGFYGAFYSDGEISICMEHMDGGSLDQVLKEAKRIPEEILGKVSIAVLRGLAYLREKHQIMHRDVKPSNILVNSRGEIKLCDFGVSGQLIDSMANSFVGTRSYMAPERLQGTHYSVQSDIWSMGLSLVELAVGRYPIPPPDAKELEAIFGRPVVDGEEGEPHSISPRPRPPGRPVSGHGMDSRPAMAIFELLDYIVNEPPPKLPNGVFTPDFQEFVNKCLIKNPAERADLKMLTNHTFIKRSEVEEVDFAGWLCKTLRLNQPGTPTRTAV
Chain of Mast/stem cell growth factor receptor Kit (Homo sapiens), P10721 [D816V] (P10721 whole entry D816V): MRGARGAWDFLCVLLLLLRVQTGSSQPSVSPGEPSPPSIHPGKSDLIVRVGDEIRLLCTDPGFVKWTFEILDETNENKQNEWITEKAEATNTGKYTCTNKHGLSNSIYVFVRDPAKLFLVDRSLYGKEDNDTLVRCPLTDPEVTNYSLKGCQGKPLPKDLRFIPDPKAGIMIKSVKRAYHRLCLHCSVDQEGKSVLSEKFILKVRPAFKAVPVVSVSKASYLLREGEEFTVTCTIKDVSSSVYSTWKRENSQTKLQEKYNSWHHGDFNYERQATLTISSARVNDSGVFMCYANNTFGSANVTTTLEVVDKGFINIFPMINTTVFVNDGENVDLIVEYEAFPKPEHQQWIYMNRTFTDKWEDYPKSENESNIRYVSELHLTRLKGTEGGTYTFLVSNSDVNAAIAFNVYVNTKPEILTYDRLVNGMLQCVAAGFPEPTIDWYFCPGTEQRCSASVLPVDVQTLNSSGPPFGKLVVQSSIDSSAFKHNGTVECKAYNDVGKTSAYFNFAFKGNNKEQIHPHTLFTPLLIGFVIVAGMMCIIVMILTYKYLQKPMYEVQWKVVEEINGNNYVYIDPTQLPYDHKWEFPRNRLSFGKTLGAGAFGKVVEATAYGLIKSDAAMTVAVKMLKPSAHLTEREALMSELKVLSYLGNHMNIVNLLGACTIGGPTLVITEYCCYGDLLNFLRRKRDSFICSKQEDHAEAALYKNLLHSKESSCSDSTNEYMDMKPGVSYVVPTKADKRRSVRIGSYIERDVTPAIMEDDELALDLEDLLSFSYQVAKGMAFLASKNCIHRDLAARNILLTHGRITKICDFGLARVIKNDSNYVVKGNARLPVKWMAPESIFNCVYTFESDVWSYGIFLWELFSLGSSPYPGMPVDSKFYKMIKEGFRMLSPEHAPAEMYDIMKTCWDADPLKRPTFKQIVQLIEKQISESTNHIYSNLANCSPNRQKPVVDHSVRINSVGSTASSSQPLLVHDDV
Chain of Fibroblast growth factor receptor 4 (Homo sapiens) (P22455 22-802 limits assumed): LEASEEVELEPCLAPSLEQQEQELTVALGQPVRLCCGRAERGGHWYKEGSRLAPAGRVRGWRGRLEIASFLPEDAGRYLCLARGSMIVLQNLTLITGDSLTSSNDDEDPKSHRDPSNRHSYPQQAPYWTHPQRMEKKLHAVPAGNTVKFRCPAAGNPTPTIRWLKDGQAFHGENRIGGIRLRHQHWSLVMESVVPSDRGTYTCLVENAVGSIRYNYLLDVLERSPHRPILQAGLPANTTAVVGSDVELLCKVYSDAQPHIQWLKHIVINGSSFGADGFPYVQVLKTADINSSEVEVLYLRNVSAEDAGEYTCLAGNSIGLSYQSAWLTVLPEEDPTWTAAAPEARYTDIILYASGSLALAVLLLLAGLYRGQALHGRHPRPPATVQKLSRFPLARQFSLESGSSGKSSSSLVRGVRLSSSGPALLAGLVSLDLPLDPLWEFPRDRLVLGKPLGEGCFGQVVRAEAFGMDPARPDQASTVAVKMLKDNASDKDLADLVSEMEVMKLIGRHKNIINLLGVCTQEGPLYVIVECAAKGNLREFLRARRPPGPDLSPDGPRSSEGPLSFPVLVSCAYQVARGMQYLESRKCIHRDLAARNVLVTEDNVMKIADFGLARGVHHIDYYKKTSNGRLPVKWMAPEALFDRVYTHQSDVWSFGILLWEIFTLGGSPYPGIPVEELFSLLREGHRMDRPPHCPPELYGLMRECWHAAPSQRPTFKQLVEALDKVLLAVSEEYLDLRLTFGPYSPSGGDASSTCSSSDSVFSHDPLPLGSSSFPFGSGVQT
Chain of Calcium/calmodulin-dependent protein kinase type II subunit beta (Homo sapiens) (Q13554 whole entry): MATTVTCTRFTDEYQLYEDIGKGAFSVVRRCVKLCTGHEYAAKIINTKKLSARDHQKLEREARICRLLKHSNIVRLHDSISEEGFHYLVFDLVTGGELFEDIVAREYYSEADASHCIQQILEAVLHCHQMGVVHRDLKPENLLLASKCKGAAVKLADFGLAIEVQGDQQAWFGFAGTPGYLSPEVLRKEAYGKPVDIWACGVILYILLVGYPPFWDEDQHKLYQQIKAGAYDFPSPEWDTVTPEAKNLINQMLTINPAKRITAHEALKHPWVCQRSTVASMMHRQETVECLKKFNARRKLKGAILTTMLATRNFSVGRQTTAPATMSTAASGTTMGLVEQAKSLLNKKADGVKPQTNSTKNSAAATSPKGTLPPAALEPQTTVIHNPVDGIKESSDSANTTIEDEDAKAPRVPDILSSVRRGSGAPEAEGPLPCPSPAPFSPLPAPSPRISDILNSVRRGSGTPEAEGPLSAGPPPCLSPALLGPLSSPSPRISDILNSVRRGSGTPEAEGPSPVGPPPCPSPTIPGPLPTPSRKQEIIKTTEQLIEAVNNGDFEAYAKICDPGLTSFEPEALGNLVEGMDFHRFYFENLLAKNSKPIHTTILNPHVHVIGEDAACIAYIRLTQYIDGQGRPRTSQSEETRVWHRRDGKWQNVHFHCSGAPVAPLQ
Chain of Ephrin type-A receptor 7 (Homo sapiens) (Q15375 28-998 limits assumed): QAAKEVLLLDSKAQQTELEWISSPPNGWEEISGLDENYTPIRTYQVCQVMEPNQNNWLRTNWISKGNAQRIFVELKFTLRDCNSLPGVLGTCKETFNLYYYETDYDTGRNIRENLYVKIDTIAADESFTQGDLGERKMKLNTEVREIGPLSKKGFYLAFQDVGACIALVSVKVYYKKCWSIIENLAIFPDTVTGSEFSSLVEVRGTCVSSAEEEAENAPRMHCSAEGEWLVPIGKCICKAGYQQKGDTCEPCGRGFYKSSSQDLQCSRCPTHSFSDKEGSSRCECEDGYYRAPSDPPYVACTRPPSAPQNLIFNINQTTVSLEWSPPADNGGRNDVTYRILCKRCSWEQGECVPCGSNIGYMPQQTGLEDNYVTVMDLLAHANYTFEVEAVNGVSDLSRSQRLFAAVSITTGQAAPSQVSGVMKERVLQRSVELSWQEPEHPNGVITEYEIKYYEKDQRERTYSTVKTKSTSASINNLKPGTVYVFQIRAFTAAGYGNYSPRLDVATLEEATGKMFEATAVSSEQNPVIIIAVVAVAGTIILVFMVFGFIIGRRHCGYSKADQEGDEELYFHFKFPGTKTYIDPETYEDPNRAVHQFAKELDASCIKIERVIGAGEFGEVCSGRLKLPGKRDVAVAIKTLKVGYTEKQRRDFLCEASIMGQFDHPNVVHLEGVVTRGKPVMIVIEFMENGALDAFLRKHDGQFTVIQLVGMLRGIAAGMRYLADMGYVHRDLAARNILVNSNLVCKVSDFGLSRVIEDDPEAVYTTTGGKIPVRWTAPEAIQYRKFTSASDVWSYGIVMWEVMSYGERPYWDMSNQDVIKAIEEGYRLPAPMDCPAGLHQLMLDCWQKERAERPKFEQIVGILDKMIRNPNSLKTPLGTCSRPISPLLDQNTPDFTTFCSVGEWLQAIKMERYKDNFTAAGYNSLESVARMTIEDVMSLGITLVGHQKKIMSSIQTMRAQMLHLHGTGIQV
Chain of Cyclin-dependent kinase 15 (Homo sapiens) (Q96Q40 whole entry, canonical isoform): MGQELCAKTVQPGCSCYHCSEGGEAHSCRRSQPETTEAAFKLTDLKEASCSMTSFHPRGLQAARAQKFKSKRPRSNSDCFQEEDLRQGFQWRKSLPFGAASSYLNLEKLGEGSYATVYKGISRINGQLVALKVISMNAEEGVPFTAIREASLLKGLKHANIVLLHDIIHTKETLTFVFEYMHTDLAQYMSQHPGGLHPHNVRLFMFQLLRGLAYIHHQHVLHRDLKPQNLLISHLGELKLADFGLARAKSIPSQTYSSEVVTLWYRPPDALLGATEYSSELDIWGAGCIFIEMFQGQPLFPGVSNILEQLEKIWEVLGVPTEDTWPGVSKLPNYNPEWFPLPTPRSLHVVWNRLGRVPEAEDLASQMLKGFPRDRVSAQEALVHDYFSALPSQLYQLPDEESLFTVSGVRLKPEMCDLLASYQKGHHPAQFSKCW
Chain of Serine/threonine-protein kinase Chk2 (Homo sapiens) (O96017 whole entry): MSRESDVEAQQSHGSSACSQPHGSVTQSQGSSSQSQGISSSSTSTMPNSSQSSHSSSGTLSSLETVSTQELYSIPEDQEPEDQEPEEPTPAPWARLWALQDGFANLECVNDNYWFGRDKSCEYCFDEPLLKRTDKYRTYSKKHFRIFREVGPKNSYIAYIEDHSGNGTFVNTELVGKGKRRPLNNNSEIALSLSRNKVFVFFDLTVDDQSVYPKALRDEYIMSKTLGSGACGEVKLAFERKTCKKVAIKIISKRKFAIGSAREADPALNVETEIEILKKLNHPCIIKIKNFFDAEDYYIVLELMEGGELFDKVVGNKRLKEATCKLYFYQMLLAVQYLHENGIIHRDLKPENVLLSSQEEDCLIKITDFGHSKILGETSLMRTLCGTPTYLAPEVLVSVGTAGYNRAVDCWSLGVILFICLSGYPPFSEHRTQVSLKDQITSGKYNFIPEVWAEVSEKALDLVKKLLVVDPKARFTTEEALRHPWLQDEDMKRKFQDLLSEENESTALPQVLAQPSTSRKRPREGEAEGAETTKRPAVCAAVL

COc1cc(-c2cn([C@H]3CCc4c(F)cccc4N(CC(F)(F)F)C3=O)nn2)ccc1-n1cnc(C)c1
residual activity [1]: 78% | residual activity [2]: 95% | residual activity [3]: 0% | residual activity [4]: 100% | residual activity [5]: 100% | residual activity [6]: 100% | residual activity [7]: 100% | residual activity [8]: 100% | residual activity [9]: 100% | residual activity [10]: 100% | residual activity [11]: 100% | residual activity [12]: 100% | residual activity [13]: 83% | residual activity [14]: 100% | residual activity [15]: 99% | residual activity [16]: 100% | residual activity [17]: 100% | residual activity [18]: 100% | residual activity [19]: 100% | residual activity [20]: 100% | residual activity [21]: 87% | residual activity [22]: 90% | residual activity [23]: 100% | residual activity [24]: 100% | residual activity [25]: 0% | residual activity [26]: 100% | residual activity [27]: 90% | residual activity [28]: 100% | residual activity [29]: 89% | residual activity [30]: 93% | residual activity [31]: 100% | residual activity [32]: 100% | residual activity [33]: 100% | residual activity [34]: 73% | residual activity [35]: 100% | residual activity [36]: 100% | residual activity [37]: 100% | residual activity [38]: 100% | residual activity [39]: 73% | residual activity [40]: 100% | residual activity [41]: 94% | residual activity [42]: 100% | residual activity [43]: 81% | inhibition [44]: -8.33% | inhibition [45]: -4.42%

COc1cc(-c2cn([C@H]3CCc4ccccc4N(CC(F)(F)F)C3=O)nn2)ccc1-n1ccc(C)n1
residual activity [1]: 57% | residual activity [2]: 90% | residual activity [3]: 100% | residual activity [4]: 92% | residual activity [5]: 89% | residual activity [6]: 100% | residual activity [7]: 94% | residual activity [8]: 100% | residual activity [9]: 97% | residual activity [10]: 97% | residual activity [11]: 100% | residual activity [12]: 100% | residual activity [13]: 95% | residual activity [14]: 80% | residual activity [15]: 100% | residual activity [16]: 100% | residual activity [17]: 100% | residual activity [18]: 100% | residual activity [19]: 100% | residual activity [20]: 100% | residual activity [21]: 83% | residual activity [22]: 69% | residual activity [23]: 100% | residual activity [24]: 100% | residual activity [25]: 100% | residual activity [26]: 98% | residual activity [27]: 83% | residual activity [28]: 100% | residual activity [29]: 100% | residual activity [30]: 100% | residual activity [31]: 100% | residual activity [32]: 100% | residual activity [33]: 100% | residual activity [34]: 65% | residual activity [35]: 85% | residual activity [36]: 87% | residual activity [37]: 92% | residual activity [38]: 97% | residual activity [39]: 71% | residual activity [40]: 100% | residual activity [41]: 94% | residual activity [42]: 100% | residual activity [43]: 63% | inhibition [44]: 20.1% | inhibition [45]: -6.94%
